According to patent publication US4450163A, “Process for the preparation of 1,3,7-trialkyl xanthines and di(3,7-dimethylxanthin-1-yl)methane as a medicament” (Societe d'Assistance Technique pour Produits Nestle S.A., priority 1979, dated 1984):

Experiments:
[1] = system: ear-swelling in mice in response to antigenic challenge; assay: dermal delayed hypersensitivity test (oxazolone), inhibition of ear-swelling in mice; format: in vivo; conditions: oxazolone sensitized, 150 mg/kg b.w. i.p. at challenge, ear thickness 24 hours after challenge, compared to control animals
Experimental: Immunosuppression of the compound of Example 25 was compared with cyclophosphamide, a known immunosuppressant drug, as an inhibitor of ear-swelling in mice in response to antigenic challenge in a dermal delayed hypersensitivity test at 150 mg/kg body weight.
The test was performed as is described e.g. by G. L. Asherton and W. Ptak in Immunology 15, 405 (1968). Mice were immunized by applying on the abdomen skin 0.1 ml of a 3% oxazolone solution. 7 days after sensitization, they were challenged by painting the same solution on the ear skin. Part of the mice were simultaneously administered i.p. the immunosuppressant drug of Example 25 or cyclophosphamide. The remaining animals served as controls. 24 hours after challenge, the increase in ear thickness was measured. Immunosuppressant activity was expressed in % of inhibition of ear-swelling in drug-administered mice compared to control animals.

[2] = pharmacological studies (immunosuppressant activity, adverse effects); format: in vivo; conditions: in words

Cn1cnc2c1c(=O)n(Cn1c(=O)c3c(ncn3C)n(C)c1=O)c(=O)n2C [Example 25, di(3,7-dimethylxanthin-1-yl)methane]
% inhib. of ear-swelling [1]: 55%
immunosuppressant activity [2]: has an immunosuppressant activity
toxic adverse effect [2]: no toxic adverse effect

O=P1(N(CCCl)CCCl)NCCCO1 (stereo not shown) [Cyclophosphamide, reference compound]
% inhib. of ear-swelling [1]: 73%
